Legend:
[1] = cited from earlier work
[2] = Solubility studies of Maropitant in solvents and solubility enhancers (visual inspection); type: physicochemical
Experimental: The following solubility studies were performed with Maropitant drug substance in various solvents and solubility enhancers. […] During solubility studies, the API was solubilized stepwise, in a series of permitted solvent (or a combination of solvent) with and without solubility enhancer. The solvent system was based on methanol, ethanol, isopropyl alcohol (IPA), acetone, methyl ethyl ketone (MEK), and water. Solubility enhancers included Maiscine CC (MGO) (HLB 1), medium chain triglyceride (MCT) oil (HLB 1), Labrafil 1944 cs (HLB 9), Labrafil 2125CS (HLB 9), Glycerine, Tween 20 (HLB 16,7), PEG 300, Propylene glycol, SLS (HLB 40). The resulting mixture was visually inspected to evaluate solubilization. The main equipment used were glass bottles, magnetic stir bars, stirrer plate, and sonicator.

[3] = Permeability of Maropitant through artificial membranes, Franz cell model; type: in vitro ADME
Experimental: Numerous experiments were performed to improve the permeability of Maropitant through artificial membranes using the Franz cell model. Initially, solutions and suspensions of Maropitant and different acids at different ratios were prepared.
Based on the results obtained with the solution/suspension of Maropitant at different pH, Maropitant oral films with and without citric acid were prepared.

CN1CC(=O)N2[C@H](c3ccc4c(c3)OCO4)c3[nH]c4ccccc4c3C[C@@H]2C1=O [Tadalafil]
solubility in water [1]: practically insoluble

COc1ccc(C(C)(C)C)cc1CN[C@H]1C2CCN(CC2)[C@H]1C(c1ccccc1)c1ccccc1 [Maropitant]
Solubility ([2]; Test 1, media Methanol): Up to 30 mg/1 g of solvent
Solubility ([2]; Test 2, media Ethanol): Up to 15 mg/1 g of solvent
Solubility ([2]; Test 3, media Isopropanol): insoluble
Solubility ([2]; Test 4, media Acetone): Up to 120 mg/1 g of solvent
Solubility ([2]; Test 5, media MEK): Up to 150 mg/1 g of solvent
Solubility ([2]; Test 6, MEK:Maiscine CC 40:2): Up to 180 mg/1 g of solvent
Solubility ([2]; Test 7, MEK:Maiscine CC 40:3): Up to 220 mg/1 g of solvent
Solubility ([2]; Test 8, MEK:MCT 40:2): Up to 220 mg/1 g of solvent
Solubility ([2]; Test 9, MEK:MCT 40:3): Up to 240 mg/1 g of solvent
Solubility ([2]; Test 10, MEK:PEG 300 40:2): Up to 180 mg/1 g of solvent
Solubility ([2]; Test 11, MEK:MCT:PEG 300 40:3:2): Up to 240 mg/1 g of solvent
Solubility ([2]; Test 12, MEK:Labrafil 1944CS 40:2): Up to 220 mg/1 g of solvent
Solubility ([2]; Test 13, MEK:Labrafil 1944CS:MCT 40:3:2): Up to 220 mg/1 g of solvent
Solubility ([2]; Test 14, MEK:Labrafil 1944CS:PEG 300 40:3:2): Up to 220 mg/1 g of solvent
Solubility ([2]; Test 15, MEK:Glycerine 40:2): Up to 135 mg/1 g of solvent
Solubility ([2]; Test 16, MEK:Tween 20 40:2): Up to 180 mg/1 g of solvent
Solubility ([2]; Test 17, MEK:Methanol 40:10): Up to 155 mg/1 g of solvent
Solubility ([2]; Test 18, MEK:Methanol:MCT 40:10:3): Up to 235 mg/1 g of solvent
Solubility ([2]; Test 19, MEK:Water 40:4.5): insoluble
Solubility ([2]; Test 20, MEK:Methanol:Labrafil 2125CCS:Tween 20 40:10:4:4): Up to 317 mg/1 g of solvent
permeation of Maropitant solutions/suspensions at different pH ([3]; Maropitant/citric acid pH 4.24, 5.22, 6.22 and phosphate citrate buffer pH 8.0, FIG. 9): acidic environment promotes Maropitant permeation
Maropitant permeability of films with versus without citric acid ([3]; oral films with and without citric acid): improved
